According to ChEMBL document CHEMBL1909046, “DrugMatrix in vitro pharmacology data”:

What was measured:
[1] = target: 5-hydroxytryptamine receptor 4 (Cavia porcellus, UniProt O70528); assay type: cell membranes, Dunkin-Hartley, Striatum, Membrane; note: in other assays of this panel Not Active means under 50% inhibition at 10 µM
[2] = DRUGMATRIX: Sigma2 radioligand binding (ligand: [3H] Ifenprodil); assay type: cell membranes, Rattus norvegicus, Wistar, Brain, Membrane; details: Not Active = under 50% inhibition at 10 µM
[3] = target: Vascular endothelial growth factor receptor 1 (Homo sapiens, UniProt P17948); assay type: cell-based; details: huvec; note: in other assays of this panel Not Active means under 50% inhibition at 10 µM
Chain of Vascular endothelial growth factor receptor 1 (P17948 whole entry): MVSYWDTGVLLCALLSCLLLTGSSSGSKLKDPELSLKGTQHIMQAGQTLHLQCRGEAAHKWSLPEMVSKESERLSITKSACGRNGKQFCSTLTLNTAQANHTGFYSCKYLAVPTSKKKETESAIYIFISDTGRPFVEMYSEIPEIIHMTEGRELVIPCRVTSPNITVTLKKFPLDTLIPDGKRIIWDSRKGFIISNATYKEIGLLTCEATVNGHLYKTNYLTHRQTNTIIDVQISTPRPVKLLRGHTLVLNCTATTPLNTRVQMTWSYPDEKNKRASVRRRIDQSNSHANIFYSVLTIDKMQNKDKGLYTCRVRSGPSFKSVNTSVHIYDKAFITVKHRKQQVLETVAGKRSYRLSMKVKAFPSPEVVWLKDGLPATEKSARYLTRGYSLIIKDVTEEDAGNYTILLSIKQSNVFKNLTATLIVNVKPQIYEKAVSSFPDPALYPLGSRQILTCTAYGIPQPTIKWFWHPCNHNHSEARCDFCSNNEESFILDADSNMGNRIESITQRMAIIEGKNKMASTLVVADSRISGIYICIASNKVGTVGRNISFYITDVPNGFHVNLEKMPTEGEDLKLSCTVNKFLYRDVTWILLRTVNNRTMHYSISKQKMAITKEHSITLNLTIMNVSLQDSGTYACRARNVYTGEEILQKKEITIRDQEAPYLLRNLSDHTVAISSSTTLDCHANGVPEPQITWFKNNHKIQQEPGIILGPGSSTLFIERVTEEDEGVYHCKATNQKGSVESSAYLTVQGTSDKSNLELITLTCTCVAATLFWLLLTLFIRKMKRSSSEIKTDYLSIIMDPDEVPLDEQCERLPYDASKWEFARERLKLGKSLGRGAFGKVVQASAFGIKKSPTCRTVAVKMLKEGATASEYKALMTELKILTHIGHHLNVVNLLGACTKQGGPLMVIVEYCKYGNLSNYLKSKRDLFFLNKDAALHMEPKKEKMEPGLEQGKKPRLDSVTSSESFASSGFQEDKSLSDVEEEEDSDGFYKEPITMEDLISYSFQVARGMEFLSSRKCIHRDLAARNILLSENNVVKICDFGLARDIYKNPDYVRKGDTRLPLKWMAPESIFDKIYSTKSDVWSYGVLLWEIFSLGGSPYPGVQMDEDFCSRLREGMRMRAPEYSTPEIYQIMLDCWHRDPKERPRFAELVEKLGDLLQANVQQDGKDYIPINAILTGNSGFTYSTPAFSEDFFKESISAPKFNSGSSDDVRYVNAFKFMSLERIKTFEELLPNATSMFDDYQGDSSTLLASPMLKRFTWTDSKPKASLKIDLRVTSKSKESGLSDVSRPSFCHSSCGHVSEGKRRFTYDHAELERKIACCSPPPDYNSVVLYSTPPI

[4] = DRUGMATRIX: Interleukin IL-1 radioligand binding (ligand: [125I] interleukin 1beta); assay type: cell membranes, Membrane; details: nih3t3; Not Active = under 50% inhibition at 10 µM
[5] = target: T1, Polyunsaturated fatty acid lipoxygenase ALOX15 (Oryctolagus cuniculus, UniProt P12530); experiment: biochemical; assay type: tissue-based, Reticulocytes;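 note: inhibition of 15-lipoxygenase enzyme activity measured with linoleic acid as the substrate; in other assays of this panel Not Active means under 50% inhibition at 10 µM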
T1 sequence (P12530 whole entry): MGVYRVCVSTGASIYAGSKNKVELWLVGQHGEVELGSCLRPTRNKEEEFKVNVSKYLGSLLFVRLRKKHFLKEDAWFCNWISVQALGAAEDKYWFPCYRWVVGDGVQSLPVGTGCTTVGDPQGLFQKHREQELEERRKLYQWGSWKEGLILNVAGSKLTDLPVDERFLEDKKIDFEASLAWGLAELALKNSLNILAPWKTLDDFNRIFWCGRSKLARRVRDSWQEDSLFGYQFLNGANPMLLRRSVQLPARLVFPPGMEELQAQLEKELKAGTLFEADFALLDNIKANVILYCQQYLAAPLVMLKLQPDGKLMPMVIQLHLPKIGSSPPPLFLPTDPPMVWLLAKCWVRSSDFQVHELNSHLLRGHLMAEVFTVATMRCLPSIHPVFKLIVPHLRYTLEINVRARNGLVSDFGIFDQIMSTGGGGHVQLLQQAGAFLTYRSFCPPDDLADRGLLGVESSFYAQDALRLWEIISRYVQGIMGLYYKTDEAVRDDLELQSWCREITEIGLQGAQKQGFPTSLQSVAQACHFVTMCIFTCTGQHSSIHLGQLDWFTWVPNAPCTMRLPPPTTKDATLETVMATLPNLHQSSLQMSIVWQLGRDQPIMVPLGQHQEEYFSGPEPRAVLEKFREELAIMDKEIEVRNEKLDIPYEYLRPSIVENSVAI

[6] = target: T2, Nitric oxide synthase, inducible (Mus musculus, UniProt P29477); parameters: species or system Escherichia coli;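 note: inhibition of iNOS enzyme activity measured with L-arginine as substrate; in other assays of this panel Not Active means under 50% inhibition at 10 µM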
T2 sequence (P29477 whole entry): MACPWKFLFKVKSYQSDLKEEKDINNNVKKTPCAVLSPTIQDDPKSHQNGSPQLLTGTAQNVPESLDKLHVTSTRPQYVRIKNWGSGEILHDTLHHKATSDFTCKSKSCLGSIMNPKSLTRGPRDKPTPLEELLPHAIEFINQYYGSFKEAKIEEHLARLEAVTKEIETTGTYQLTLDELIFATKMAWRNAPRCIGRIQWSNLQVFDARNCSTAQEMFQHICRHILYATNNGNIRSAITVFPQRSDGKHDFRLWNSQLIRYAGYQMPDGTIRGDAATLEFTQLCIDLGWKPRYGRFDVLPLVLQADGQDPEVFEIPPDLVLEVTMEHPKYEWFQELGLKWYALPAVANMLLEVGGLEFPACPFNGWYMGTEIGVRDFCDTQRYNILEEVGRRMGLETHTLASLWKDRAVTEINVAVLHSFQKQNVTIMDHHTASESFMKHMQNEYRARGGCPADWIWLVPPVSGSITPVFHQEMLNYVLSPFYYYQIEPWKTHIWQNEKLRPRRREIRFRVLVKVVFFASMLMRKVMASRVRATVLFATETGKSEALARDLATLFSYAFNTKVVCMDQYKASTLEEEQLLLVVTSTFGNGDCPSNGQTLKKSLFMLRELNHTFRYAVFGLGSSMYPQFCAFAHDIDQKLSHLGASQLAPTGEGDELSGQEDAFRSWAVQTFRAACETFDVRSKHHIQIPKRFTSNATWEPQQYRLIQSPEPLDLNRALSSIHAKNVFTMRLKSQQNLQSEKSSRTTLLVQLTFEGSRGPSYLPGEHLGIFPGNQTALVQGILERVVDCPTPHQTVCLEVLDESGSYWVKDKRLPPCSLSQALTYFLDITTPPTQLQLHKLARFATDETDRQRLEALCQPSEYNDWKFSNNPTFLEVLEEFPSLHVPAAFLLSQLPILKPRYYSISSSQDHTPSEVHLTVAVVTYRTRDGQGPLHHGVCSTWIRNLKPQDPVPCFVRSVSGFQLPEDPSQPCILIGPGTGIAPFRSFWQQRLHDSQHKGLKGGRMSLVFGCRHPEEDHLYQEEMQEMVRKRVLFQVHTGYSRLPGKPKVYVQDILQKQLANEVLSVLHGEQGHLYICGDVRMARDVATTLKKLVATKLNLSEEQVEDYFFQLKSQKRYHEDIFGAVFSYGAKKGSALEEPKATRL

[7] = DRUGMATRIX: Phorbol Ester radioligand binding (ligand: [3H] PDBu); assay type: cell membranes, Mus musculus, ICR, Brain, Membrane; details: Not Active = under 50% inhibition at 10 µM
[8] = target: cGMP-specific 3',5'-cyclic phosphodiesterase (Homo sapiens, UniProt O76074); experiment: DRUGMATRIX: Phosphodiesterase PDE5 enzyme inhibition (substrate: [3H]cGMP + cGMP); assay type: tissue-based; details: platelet; Not Active = under 50% inhibition at 10 µM
[9] = DRUGMATRIX: Purinergic P2X radioligand binding (ligand: [3H] alpha, beta-Methylene-ATP); assay type: cell membranes, Oryctolagus cuniculus, New Zealand albino, Urinary bladder, Membrane; details: Not Active = under 50% inhibition at 10 µM
Adenosine receptor A2a = Adenosine receptor A2a (Homo sapiens, UniProt P29274); experiment: DRUGMATRIX: Adenosine A2A radioligand binding (ligand: […]); assay type: cell membranes, HEK293, Membrane; details: hek293; Not Active = under 50% inhibition at 10 µM
Chain of Adenosine receptor A2a (P29274 whole entry): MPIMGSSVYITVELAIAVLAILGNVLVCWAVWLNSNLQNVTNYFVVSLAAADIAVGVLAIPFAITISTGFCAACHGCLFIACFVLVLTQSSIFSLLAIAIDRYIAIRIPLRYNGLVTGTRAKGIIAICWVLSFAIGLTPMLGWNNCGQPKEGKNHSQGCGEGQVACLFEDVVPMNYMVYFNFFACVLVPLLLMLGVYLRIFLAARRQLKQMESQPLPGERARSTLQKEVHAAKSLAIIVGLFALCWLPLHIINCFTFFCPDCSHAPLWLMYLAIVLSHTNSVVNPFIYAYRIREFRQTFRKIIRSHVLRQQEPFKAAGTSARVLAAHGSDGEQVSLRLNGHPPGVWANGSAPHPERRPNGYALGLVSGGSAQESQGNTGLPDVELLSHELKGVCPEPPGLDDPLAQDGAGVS

Cytochrome P450 2C19 = Cytochrome P450 2C19 (Homo sapiens, UniProt P33261); details: bti-tn-5b1-4; note: in other assays of this panel Not Active means under 50% inhibition at 10 µM
Chain of Cytochrome P450 2C19 (P33261 whole entry): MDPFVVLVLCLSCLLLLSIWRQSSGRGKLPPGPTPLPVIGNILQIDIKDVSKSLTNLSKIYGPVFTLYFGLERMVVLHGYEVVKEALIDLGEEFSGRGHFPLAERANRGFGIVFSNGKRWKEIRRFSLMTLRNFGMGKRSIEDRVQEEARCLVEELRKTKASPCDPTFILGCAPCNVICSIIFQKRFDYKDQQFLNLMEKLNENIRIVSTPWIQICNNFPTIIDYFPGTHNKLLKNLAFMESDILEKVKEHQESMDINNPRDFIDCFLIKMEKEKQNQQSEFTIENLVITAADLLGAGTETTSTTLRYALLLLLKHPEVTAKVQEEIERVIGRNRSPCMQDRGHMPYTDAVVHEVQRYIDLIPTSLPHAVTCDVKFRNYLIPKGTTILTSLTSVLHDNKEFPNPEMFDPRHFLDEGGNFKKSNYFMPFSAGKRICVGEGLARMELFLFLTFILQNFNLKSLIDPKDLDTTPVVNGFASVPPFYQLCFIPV

Chain of 5-hydroxytryptamine receptor 4 (O70528 whole entry): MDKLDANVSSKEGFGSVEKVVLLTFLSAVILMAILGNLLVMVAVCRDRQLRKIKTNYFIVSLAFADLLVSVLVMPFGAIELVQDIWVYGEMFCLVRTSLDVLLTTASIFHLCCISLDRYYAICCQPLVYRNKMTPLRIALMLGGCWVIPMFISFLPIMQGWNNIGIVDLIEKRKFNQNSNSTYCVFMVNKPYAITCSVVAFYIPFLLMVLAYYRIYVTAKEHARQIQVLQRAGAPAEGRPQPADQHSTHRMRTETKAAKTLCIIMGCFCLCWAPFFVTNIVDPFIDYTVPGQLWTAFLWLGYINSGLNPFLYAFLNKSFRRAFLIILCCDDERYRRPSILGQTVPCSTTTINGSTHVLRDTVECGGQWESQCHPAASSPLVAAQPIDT

Structure (SMILES)	IC50 [1]	IC50 [2]	Ki [2]	IC50 [3]	IC50 [4]	Ki [4]	IC50 ([5]; reticulocytes)	IC50 [6]	IC50 [7]	Ki [7]	IC50 [8]	IC50 [9]	Ki [9]	IC50 (Adenosine receptor A2a)	IC50 (Cytochrome P450 2C19)	Ki (Cytochrome P450 2C19)	IC50 ([5]; read-out: IC50)	IC50 ([2]; read-out: IC50)	Ki ([2]; read-out: Ki)
N[C@H](CSC(=S)NCc1ccccc1)C(=O)O	Not Active	Not Active	Not Active	Not Active	Not Active	Not Active	Not Active	Not Active	Not Active	Not Active	Not Active	Not Active	Not Active	Not Active	Not Active	Not Active			
Cc1cc(C)nc(NS(=O)(=O)c2ccc(N)cc2)n1 [SULFAMETHAZINE]	Not Active	Not Active	Not Active	Not Active	Not Active	Not Active	Not Active	Not Active	Not Active	Not Active	Not Active	Not Active	Not Active	Not Active	Not Active	Not Active			
Cc1cccc(Nc2ccncc2S(=O)(=O)NC(=O)NC(C)C)c1 [TORSEMIDE]	Not Active	Not Active	Not Active	Not Active	Not Active	Not Active	Not Active	Not Active	Not Active	Not Active	Not Active	Not Active	Not Active	Not Active	Not Active	Not Active			
O=C1CCC(N2C(=O)c3ccccc3C2=O)C(=O)N1 (centres undefined) [THALIDOMIDE]	Not Active	Not Active	Not Active	Not Active	Not Active	Not Active	Not Active	Not Active	Not Active	Not Active	Not Active	Not Active	Not Active	Not Active	Not Active	Not Active			
CC(C)CC(N(C)C)C1(c2ccc(Cl)cc2)CCC1 (centres undefined) [SIBUTRAMINE]	Not Active	Not Active	Not Active	Not Active	Not Active	Not Active	Not Active	Not Active	Not Active	Not Active	Not Active	Not Active	Not Active	Not Active	Not Active	Not Active			
CC(C)NCC(O)COc1cccc2ccccc12 (centres undefined) [PROPRANOLOL]	Not Active			Not Active			Not Active	Not Active			Not Active			Not Active	Not Active	Not Active			
CC[C@]1(O)C[C@@H]2CN(CCc3c([nH]c4ccccc34)[C@@](C(=O)OC)(c3cc4c(cc3OC)N(C)[C@H]3[C@@](O)(C(=O)OC)[C@H](OC(C)=O)[C@]5(CC)C=CCN6CC[C@]43[C@@H]65)C2)C1 [VINBLASTINE]	Not Active	Not Active	Not Active	Not Active	Not Active	Not Active		Not Active	Not Active	Not Active	Not Active	Not Active	Not Active	Not Active			5040 nM		
COCCOC(=O)C1=C(C)NC(C)=C(C(=O)OC(C)C)C1c1cccc([N+](=O)[O-])c1 (centres undefined) [NIMODIPINE]	Not Active	Not Active	Not Active	Not Active	Not Active	Not Active	Not Active	Not Active	Not Active	Not Active	Not Active	Not Active	Not Active	Not Active					
O=C(c1ccc(OCCN2CCCCC2)cc1)c1c(-c2ccc(O)cc2)sc2cc(O)ccc12 [RALOXIFENE]	Not Active			Not Active	Not Active	Not Active	Not Active	Not Active	Not Active	Not Active	Not Active	Not Active	Not Active					385 nM	237 nM
CC/C(=C(/CC)c1ccc(O)cc1)c1ccc(O)cc1 [DIETHYLSTILBESTROL]	Not Active			Not Active				Not Active			Not Active				Not Active	Not Active	2960 nM		
C=CCN1CC[C@]23c4c5ccc(O)c4O[C@H]2C(=O)CC[C@@]3(O)[C@H]1C5 [NALOXONE]	Not Active			Not Active			Not Active	Not Active			Not Active			Not Active					
Clc1ccc2c(c1)C(N1CCNCC1)=Nc1ccccc1O2 [AMOXAPINE]	Not Active			Not Active			Not Active	Not Active			Not Active			Not Active	Not Active	Not Active			
C[C@@H](N)[C@H]1CC[C@H](C(=O)Nc2ccncc2)CC1 [Y-27632]	Not Active	Not Active	Not Active	Not Active	Not Active	Not Active	Not Active	Not Active	Not Active	Not Active	Not Active	Not Active	Not Active	Not Active					
CC(C)c1nc(CN(C)C(=O)N[C@H](C(=O)N[C@@H](Cc2ccccc2)C[C@H](O)[C@H](Cc2ccccc2)NC(=O)OCc2cncs2)C(C)C)cs1 [RITONAVIR]	Not Active	Not Active	Not Active	Not Active	Not Active	Not Active	Not Active	Not Active	Not Active	Not Active	Not Active	Not Active	Not Active	Not Active					
CN1CCC(=C2c3ccccc3C=Cc3ccccc32)CC1 [CYPROHEPTADINE]	Not Active			Not Active			Not Active	Not Active			Not Active			Not Active	Not Active	Not Active			
COc1cc2c(c(OC)c1OC)-c1ccc(OC)c(=O)cc1[C@@H](NC(C)=O)CC2 [COLCHICINE]	Not Active			Not Active			Not Active	Not Active			Not Active			Not Active	Not Active	Not Active			
